Common to all, as to type: biochemical
One assay has as its target HDAC3 (Homo sapiens, UniProt O15379). The experiment in a line: cat. HDAC3 IC50.
The target of assay [1] is T1, human HDAC5 catalytic domain (Homo sapiens, UniProt Q9UQL6).
T1 construct: amino acids 657-1123 with a C-terminal His tag; His (C); purchased BPS BioScience; host or cells: baculovirus expression system
The experiment in a line: Inhibition of HDAC5 catalytic domain, Boc-Lys(Tfa)-AMC substrate.

The target of another assay is HDAC4 (Homo sapiens, UniProt P56524). The experiment in a line: HDAC4 (bioch) IC50. The settings on record: Table 4, bioch; read-out: HDAC4.
HDAC4, sequence (P56524 whole entry): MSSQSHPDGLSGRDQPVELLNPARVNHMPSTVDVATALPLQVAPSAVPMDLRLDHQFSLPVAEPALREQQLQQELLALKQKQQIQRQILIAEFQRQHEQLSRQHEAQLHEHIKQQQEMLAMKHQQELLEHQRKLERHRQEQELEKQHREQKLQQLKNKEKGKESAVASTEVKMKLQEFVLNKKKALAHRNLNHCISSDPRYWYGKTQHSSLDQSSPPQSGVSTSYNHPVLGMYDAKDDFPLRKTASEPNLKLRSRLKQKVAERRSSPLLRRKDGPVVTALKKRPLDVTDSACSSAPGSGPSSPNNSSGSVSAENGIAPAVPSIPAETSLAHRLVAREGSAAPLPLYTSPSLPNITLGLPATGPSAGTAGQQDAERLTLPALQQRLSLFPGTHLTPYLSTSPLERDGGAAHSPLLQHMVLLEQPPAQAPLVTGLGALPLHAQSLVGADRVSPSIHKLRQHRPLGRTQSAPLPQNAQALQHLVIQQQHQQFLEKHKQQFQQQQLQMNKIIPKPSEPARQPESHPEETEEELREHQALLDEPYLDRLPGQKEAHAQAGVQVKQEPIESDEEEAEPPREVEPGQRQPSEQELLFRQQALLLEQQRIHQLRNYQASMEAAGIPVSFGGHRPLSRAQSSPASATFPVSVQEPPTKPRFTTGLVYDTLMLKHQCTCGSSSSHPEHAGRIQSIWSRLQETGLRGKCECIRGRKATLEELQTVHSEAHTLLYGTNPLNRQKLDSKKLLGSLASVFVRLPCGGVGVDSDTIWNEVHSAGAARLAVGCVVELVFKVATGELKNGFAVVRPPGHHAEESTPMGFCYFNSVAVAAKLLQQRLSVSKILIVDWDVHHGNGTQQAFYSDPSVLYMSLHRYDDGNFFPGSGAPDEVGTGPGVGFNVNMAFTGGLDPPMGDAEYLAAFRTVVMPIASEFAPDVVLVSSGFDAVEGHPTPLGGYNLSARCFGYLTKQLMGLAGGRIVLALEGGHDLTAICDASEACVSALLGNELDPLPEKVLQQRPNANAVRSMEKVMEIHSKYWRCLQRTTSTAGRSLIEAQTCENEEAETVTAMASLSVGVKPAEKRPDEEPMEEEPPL
The next assay has as its target T2, HDAC8 (Homo sapiens, UniProt Q9BY41).
T2 sequence (Q9BY41 1-377): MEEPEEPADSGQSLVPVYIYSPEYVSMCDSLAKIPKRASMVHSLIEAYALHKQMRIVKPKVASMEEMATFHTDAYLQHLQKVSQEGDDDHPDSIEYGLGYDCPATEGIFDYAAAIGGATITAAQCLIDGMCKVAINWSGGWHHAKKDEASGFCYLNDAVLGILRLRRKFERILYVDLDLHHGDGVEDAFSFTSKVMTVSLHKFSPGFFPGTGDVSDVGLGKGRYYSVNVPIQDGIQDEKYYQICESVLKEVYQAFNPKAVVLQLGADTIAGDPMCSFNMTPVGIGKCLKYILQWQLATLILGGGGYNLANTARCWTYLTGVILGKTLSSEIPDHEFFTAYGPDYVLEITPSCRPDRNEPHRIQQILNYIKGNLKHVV
The experiment in a line: cat. HDAC8 IC50.

For a further assay, the target named is T3, human HDAC7 (Homo sapiens, UniProt Q8WUI4).
T3 construct: amino acids 518-end with a N-terminal Glutathione S-transferase (GST) tag; GST (N); purchased BPS BioScience; host or cells: baculovirus expression system
T3 sequence (Q8WUI4 518-952 limits assumed): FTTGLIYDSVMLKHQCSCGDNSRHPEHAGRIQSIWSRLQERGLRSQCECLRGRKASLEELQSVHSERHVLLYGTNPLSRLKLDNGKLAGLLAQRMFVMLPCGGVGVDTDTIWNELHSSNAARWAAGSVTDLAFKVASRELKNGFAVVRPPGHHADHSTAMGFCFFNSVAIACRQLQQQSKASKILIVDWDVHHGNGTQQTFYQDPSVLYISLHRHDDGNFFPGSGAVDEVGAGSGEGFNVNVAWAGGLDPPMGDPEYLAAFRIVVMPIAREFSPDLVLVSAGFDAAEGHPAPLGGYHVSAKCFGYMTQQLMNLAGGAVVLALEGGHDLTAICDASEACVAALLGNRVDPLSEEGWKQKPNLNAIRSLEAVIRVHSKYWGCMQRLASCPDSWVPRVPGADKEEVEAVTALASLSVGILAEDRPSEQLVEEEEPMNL
The experiment in a line: Inhibition of HDAC7, Boc-Lys(Tfa)-AMC substrate.

In a further assay the target is T4, human HDAC9 (Homo sapiens, UniProt Q9UKV0).
T4 construct: amino acids 604-1066 with a C-terminal His tag; His (C); purchased BPS BioScience; host or cells: baculovirus expression system
T4 sequence (Q9UKV0 604-1066 isoform Q9UKV0-5): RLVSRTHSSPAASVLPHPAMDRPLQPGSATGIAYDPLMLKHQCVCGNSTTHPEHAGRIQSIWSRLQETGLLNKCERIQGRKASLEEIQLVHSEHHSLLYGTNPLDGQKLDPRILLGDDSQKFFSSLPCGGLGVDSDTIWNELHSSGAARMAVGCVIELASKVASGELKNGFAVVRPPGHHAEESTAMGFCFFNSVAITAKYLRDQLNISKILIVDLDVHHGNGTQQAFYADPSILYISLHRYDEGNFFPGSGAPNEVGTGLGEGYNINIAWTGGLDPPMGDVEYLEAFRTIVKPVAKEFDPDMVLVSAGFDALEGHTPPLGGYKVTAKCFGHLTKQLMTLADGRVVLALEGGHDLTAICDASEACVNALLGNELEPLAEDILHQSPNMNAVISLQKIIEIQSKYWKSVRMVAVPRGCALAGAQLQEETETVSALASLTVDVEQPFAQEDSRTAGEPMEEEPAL
The experiment in a line: Inhibition of HDAC9, Boc-Lys(Tfa)-AMC substrate.

The target in another assay is T5, HDAC6 (Homo sapiens, UniProt Q9UBN7).
T5 sequence (Q9UBN7 1-1215): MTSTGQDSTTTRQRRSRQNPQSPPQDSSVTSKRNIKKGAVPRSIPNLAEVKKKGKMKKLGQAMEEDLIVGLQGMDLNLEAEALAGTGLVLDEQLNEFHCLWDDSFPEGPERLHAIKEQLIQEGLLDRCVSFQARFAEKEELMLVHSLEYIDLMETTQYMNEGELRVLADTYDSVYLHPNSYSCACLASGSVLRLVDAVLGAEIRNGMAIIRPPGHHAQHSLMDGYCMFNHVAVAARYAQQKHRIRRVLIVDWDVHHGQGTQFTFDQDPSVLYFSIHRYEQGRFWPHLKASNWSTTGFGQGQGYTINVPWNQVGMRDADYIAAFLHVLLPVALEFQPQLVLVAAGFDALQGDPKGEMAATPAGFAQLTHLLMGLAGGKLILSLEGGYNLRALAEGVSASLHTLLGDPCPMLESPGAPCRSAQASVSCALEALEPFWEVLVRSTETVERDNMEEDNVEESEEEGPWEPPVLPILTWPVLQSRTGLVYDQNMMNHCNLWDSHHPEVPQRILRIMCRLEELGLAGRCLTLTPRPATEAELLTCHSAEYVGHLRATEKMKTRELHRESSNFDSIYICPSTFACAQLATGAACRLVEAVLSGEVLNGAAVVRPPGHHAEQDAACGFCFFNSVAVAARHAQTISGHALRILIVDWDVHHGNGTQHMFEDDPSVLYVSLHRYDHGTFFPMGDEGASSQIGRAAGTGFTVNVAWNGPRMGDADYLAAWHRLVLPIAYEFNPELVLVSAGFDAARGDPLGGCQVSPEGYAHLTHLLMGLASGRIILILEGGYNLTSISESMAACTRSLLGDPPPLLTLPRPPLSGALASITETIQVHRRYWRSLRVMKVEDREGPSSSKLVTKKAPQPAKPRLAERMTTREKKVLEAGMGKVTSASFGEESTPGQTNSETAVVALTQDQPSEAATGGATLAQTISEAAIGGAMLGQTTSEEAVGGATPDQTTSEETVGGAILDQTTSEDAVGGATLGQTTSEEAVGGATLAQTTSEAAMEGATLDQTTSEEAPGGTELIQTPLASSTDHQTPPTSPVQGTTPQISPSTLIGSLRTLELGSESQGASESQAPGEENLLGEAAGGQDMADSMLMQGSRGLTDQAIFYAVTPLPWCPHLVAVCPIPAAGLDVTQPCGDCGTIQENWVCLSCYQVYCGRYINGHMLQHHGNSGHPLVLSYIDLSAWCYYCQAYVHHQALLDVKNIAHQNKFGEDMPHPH
The experiment in a line: cat. HDAC6 IC50.

Consider 1 molecule from US9562021B2, “Histone deacetylase inhibitors and compositions and methods of use thereof” (CHDI Foundation, Inc., priority 2013, dated 2017).

The structures appear in SMILES notation. pIC50: −log10 of the molar value.

HDAC3, sequence (O15379 whole entry, the tested form may be a part): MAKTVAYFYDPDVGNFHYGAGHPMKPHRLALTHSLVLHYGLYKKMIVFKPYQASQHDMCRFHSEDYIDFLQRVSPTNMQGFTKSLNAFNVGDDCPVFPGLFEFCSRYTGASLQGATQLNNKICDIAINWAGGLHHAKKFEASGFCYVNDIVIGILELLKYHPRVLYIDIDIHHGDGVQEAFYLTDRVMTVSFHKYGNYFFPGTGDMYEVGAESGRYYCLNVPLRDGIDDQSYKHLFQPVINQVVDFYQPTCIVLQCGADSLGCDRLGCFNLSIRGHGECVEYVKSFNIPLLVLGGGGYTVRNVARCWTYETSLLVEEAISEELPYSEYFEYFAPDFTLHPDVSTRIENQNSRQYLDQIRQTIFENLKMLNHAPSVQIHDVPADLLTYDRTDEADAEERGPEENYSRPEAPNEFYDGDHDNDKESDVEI
HDAC3, sequence (Q9Y618 395-489 partner limits assumed): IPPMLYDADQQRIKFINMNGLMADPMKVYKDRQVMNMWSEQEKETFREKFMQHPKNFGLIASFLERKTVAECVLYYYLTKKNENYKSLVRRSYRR
T1 sequence (Q9UQL6 656-1122): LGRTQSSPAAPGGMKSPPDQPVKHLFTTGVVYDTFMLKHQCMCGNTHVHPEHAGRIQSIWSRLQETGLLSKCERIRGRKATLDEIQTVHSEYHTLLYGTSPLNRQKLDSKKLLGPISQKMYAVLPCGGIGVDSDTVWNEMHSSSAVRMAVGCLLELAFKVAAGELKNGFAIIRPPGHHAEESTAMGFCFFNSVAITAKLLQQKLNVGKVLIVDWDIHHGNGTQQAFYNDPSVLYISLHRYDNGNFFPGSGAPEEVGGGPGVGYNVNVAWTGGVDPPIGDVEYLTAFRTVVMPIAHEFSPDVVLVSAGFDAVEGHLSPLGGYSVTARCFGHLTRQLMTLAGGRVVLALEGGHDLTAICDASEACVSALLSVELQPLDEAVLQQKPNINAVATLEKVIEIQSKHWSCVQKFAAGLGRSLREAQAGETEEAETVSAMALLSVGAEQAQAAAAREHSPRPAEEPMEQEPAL

Take `O=C(NO)C(c1ccccc1)c1ccc(-c2cncnc2)cc1` (stereo not shown) [drawing 21]: the “Fold Selectivity (bioch) HDAC3:HDAC4” value at HDAC3 was found to be 320. Further, the “Fold Selectivity (bioch) HDAC5:HDAC4” value in assay [1] worked out at 0.3. Also, the pIC50 at HDAC4 was 7.05. Further, the “Fold Selectivity (bioch) HDAC8:HDAC4” value at HDAC8 is recorded as 60. In addition, the “Fold Selectivity (bioch) HDAC7:HDAC4” value on human HDAC7 is recorded as 0.8. In addition, the “Fold Selectivity (bioch) HDAC9:HDAC4” value at human HDAC9 was 1. Besides, the “Fold Selectivity (bioch) HDAC6:HDAC4” value at HDAC6 turned out to be 50.
